Laboratory results published in patent US5504190A, “Equimolar multiple oligomer mixtures, especially oligopeptide mixtures” (priority 1994, dated 1996).
Like-named read-outs stand apart in the source and are kept apart here. Peptide text beside a SMILES is read from it.

Assays:
[1] = system: Herpes Simplex Virus Type 1 (HSV-1); assay: HSV-1 plaque assay on Vero cell monolayers; assay type: cell-based; details: Table 10
Method: The screenings utilized a plaque assay in which 24-well plates containing Vero (monkey kidney) cell monolayers were overlaid with 400 μg/ml of each peptide or mixture in M-199V (medium and newborn calf serum). The plates were incubated for two hours at 37° C.
Each well was thereafter aspirated and immediately overlaid with 400 μg of peptide or mixture in DMEM-O (Dulbeco's modified Eagle's medium and pooled human gamma globulin) and incubated for 48 hours. […] At 48 hours, the plate wells were aspirated, rinsed, fixed and stained. Plaque formation, if present, was tallied and recorded.
The PFU's per well of six controls were averaged and represent 100 percent plaque formation at approximately 50 PFU's per well. The average PFU's per screened peptide or mixture (duplicate wells) quantitatively represented percent viral inhibition of plaque formation or infection. For example, a count of 10 PFU's of a screened peptide compared to the control of 50 PFU's would represent 20 percent plaque formation and 80 percent plaque inhibition.

[2] = system: Vero (monkey kidney) cell monolayers; assay type: cell-based
mAb 19B10 = assay: competitive ELISA, inhibition of mAb 19B10 binding to plate-adsorbed peptide SEQ ID NO:89; details: as the positions were defined
Excerpt: The antigenic determinant recognized by mAb 19B10 has the sequence Asp-Val-Pro-Asp-Tyr-Ala (SEQ ID NO:88). […].
Oligopeptide sets were screened in the general manner discussed previously, except that rather than using 400 mixture sets whose first two positions were defined and whose last four were equimolar mixtures for the first screen, 324 such N-acetyl C-amide sets were used based on mixtures of eighteen amino acids. Tryptophan and cysteine were not included with these mixture.

[3] = target: monoclonal antibody (mAb) 125-10F3; assay: competitive ELISA, inhibition of mAb 125-10F3 binding to plate-adsorbed polypeptide SEQ ID NO:1
Excerpt: Monoclonal antibody (mAb) 125-10F3 was used in these studies, which binds specifically to a 13-residue polypeptide […](SEQ ID NO:1) Appel et al., J. Immunol., 144:976-983 (1990)!. The antigenic determinant recognized by the mAb is Pro-Tyr-Pro-Asn-Leu-Ser (SEQ ID NO:2), determined previously using individual omission analogs of the polypeptide as is seen in FIG. 2.
The peptide library was screened utilizing a competitive ELISA system that measured the inhibition in solution of the binding of the mAb to polypeptide SEQ ID NO:1 adsorbed to an assay plate by each individual element of the synthetic combinatorial library. […] Screening data for an exemplary eighteen of the 400 sets are shown in FIG. 4, with arrows at the two best binding sequences.
The concentration of the inhibiting oligopeptide sets at which 50 percent of the mAb was inhibited in its binding to the polypeptide (IC-50) was determined.

[4] = system: Staphylococcus aureus (ATCC 29213); assay: microbe, parasite or virus in culture; details: Tables 3 and 4
Method: Escherichia coli (ATCC 25922) was used as Gram-negative (-) and Staphylococcus aureus (ATCC 29213) as Gram-positive (+) bacteria. Bacteria were grown overnight (about 18 hours) at 37° C. in Mueller-Hinton (MH) broth. This culture was reinoculated and incubated at 37° C. to reach the exponential phase of bacteria growth; i.e., a final bacterial suspension containing about 10^5 to 5×10^5 colony-forming units (CFU)/ml. The concentration of cells was established by plating 100 μl of different dilutions of the culture solution (e.g., 10^-2, 10^-3 and 10^-4) onto solid agar plates. Following an overnight (about 18 hours) incubation at 37° C., the CFU thus formed were counted on each agar plate.
96-Well tissue culture plates were utilized, with eight wells per plate containing only medium as control blanks, whereas eight other wells contained medium plus cells as a positive growth control. These controls were used to detect possible medium contamination and to provide a measure of uninhibited growth of the microorganisms.
For initial screening studies, oligopeptide sets were added to the bacterial suspension to reach a final concentration of 1 mg/ml.
The plates were incubated overnight (about 18 hours) at 37° C., and the optical density (OD) determined at 620 nm after different times of incubation.

human red blood cells = assay type: cell-based
Method: Assays were carried out in 96-well culture tissue plates. Four wells per plate contained 125 μl of a non-peptide positive control of the surfactant Triton X-100 (poly)oxyethanol (9) octyl phenyl ether; 1 percent in deionized water!, and four wells per plate contained 115 μl of a control blank of phosphate-buffered saline (PBS). The hemolytic peptide melittin was used as comparative control. The controls served to detect possible contamination and to calculate the percent hemolysis of each peptide.
Human red blood cells (RBC's) were washed with PBS and centrifuged to separate them from the serum. The cells are then resuspended in PBS to a final suspension of 0.5 percent RBC. This suspension (125 μl) was added to the peptide mixture and control solutions. The plates were incubated at 37° C. for one hour and centrifuged at 2800 rpm for five minutes. The release of hemoglobin resulting from the cell lysis was determined by measuring the OD at 414 nm of 100 μl of the supernatant.

[5] = system: Candida albicans ATCC 10231; assay: antifungal assay, growth inhibition of C. albicans (OD 620 nm); assay type: cell-based; details: Table 9
Method: Antifungal studies were carried out Candida albicans ATCC 10231 as the target microbe. The yeast culture was spread onto YM agar plates and incubated at 30° C. for 48 hours. Three colonies of this culture (about 1 mm in diameter each) were then inoculated in 5 ml of 1 X PBS solution. The suspension was vortexed and diluted 10-fold in YM broth, for an approximate final concentration of 10^5 to 5×10^5 CFU (colony forming units)/ml.
Actual concentrations of yeast cultures were determined by plating 100 μl of different solutions of the culture solution (10^-3, 10^-4 and 10^-5) onto solid YM agar plates. After 48 hours of incubation at 30° C., CFU formed were counted from each plate.
The assays were carried out in 96-well tissue culture plates. Eight wells containing only medium of YM broth served as negative controls, whereas eight wells containing medium and yeast culture served as positive controls. These controls were used to detect possible medium contamination and to provide a measure of uninhibited growth of the yeast.
For screening studies, oligopeptide mixtures were added to the yeast suspension in duplicates to reach a final concentration of 1.5 mg/ml. […] The plates were incubated over a period of 48 hours at 30° C., and the optical density (OD) at 24 and 48 hours was determined at 620 nm.

[6] = later study completing the Ac-Tyr-Pro series ("in this study"), read-out: IC-50

| Compound | concentration for 100 Percent Inhibition [1] | Toxic Concentration [2] | further results |
| --- | --- | --- | --- |
| CC(=O)N[C@@H](CCCNC(=N)N)C(=O)N[C@@H](CCCNC(=N)N)C(=O)N[C@@H](Cc1c[nH]c2ccccc12)C(=O)N[C@@H](Cc1c[nH]c2ccccc12)C(=O)N[C@@H](CS)C(=O)N[C@@H](CS)C(N)=O [RRWWCC] (Ac-RRWWCC-NH2) | 1 µg/mL | 10 µg/mL | – |
| Ac-DVPDYA-NH2 [Ac-Asp-Val-Pro-Asp-Tyr-Ala-NH2] | – | – | IC50 (mAb 19B10): 30 nM |
| Ac-PYPNLS-NH2 [Ac-Pro-Tyr-Pro-Asn-Leu-Ser-NH2] | – | – | IC50 ([3]; iterative screening and control study of Example 2, read-out: IC-50 (concentration at which 50 percent of the mAb was inhibited in its binding to the polypeptide)): 10 nM; IC50 [3, 6]: 40 nM |
| Ac-RRWWCA-NH2 [RRWWCA] | 1 µg/mL | 25 µg/mL | IC-50 [4]: 8.4 µg/mL; MIC [4]: 9 to 18 µg/mL |
| Ac-RRWWCF-NH2 [RRWWCF] | 5 µg/mL | 10 µg/mL | – |
| Ac-RRWWCG-NH2 [RRWWCG] | 1 µg/mL | 10 µg/mL | – |
| Ac-RRWWCK-NH2 [RRWWCK] | 5 µg/mL | 10 µg/mL | IC-50 [4]: 5.5 µg/mL; MIC [4]: 4.8 to 9.6 µg/mL; HD-50 (human red blood cells): 249 µg/mL |
| Ac-RRWWCM-NH2 [RRWWCM] | 1 µg/mL | 10 µg/mL | – |
| Ac-RRWWRR-NH2 [RRWWRR] | 1 µg/mL | 25 µg/mL | IC-50 [5]: 27.6 µg/mL; MIC [5]: 30 to 42 µg/mL |
| Ac-RRWWRW-NH2 [RRWWRW] | 1 µg/mL | 25 µg/mL | – |
| Ac-YPNLSN-NH2 [Ac-Tyr-Pro-Asn-Leu-Ser-Asn-NH2] | – | – | IC50 [3, 6]: 150 nM; IC-50 value difference between the mixture (positions 1-5 of SEQ ID NO:15, position 6 mixture) and the single peptide ([3]; mixture inhibited better): about a factor of four |
